Assay results published in ChEMBL document CHEMBL4196101, “Dual Leucine Zipper Kinase Inhibitors for the Treatment of Neurodegeneration” (J Med Chem, 2018).

Molecular target: Mitogen-activated protein kinase kinase kinase 12 (Homo sapiens) (UniProt Q12852)
Assay: Inhibition of DLK (unknown origin) using myelin basic protein as substrate preincubated for 15 mins measured after 30 mins in presence of [gamma-32P]ATP by scintillation counting

Sequence of Mitogen-activated protein kinase kinase kinase 12 (Homo sapiens) (Q12852 whole entry, looked up): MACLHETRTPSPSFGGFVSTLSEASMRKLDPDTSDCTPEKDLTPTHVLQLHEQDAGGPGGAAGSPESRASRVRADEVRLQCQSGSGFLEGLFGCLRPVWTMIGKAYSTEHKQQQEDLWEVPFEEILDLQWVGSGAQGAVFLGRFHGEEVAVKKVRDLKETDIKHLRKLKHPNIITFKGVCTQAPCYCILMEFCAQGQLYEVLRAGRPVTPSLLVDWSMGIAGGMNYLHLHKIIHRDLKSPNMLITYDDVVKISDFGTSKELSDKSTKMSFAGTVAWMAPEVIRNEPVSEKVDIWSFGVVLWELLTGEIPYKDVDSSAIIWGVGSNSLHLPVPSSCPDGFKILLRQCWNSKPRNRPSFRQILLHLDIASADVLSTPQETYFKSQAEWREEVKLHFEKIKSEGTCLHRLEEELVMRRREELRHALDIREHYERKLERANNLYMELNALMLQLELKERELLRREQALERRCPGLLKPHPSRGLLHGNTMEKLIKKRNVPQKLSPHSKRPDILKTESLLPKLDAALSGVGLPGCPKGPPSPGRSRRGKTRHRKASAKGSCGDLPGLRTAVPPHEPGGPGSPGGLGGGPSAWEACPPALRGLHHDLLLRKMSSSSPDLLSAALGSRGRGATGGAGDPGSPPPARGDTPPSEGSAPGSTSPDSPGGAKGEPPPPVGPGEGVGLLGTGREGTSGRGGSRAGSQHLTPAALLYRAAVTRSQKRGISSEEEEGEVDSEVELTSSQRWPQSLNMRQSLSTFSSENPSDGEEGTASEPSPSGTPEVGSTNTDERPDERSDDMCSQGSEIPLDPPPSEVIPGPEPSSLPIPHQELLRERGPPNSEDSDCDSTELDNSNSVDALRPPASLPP

IC50: 114 nM
Structure (SMILES): CCSCc1ccc2c(c1)c1c3c(c4c5cc(CSCC)ccc5n5c4c1n2[C@H]1C[C@](O)(C(=O)OC)[C@]5(C)O1)CNC3=O [CEP-1347]
